These results are taken from US20210052566A1, “METHODS FOR TREATING HEPATITIS B VIRUS (HBV) INFECTION” (INSERM (INSTITUT NATIONAL DE LA SANTÉ ET DE LA RECHERCHE …, priority 2018, published 2021).

One assay deals with HBV genotype D. The assay can be described thus: Anti-HBV properties in persistently infected dHepaRG cells, genotype D (post-infection treatment). It counts as cell-based, Hepatitis B virus. The conditions noted are these: treated three times with 10 microM. As to the method:
(§1) FIG. 1. Experimental outlines. Treatment schemes: (a) Treatments in pre-infection: dHepaRG cells were treated for 24 h (at day −1) with 100 nM of PreS1 peptide (PreS1-pep) or 10 μM of 1C8, or untreated (NT). At day 0, cells were inoculated with HBV (MOI=250) or with HDV (MOI=25) in the presence of drugs for 24 h. For the tenofovir control (TDF at 10 μM), cells were treated at day 1 and 4 post-infection. Supernatant and cells were harvested at day 7 post-infection. (b) Treatments in post-infection: dHepaRG cells were inoculated with HBV (MOI=250) or with HDV (MOI=25). At days 4, 7 and 9 post infection, cells were treated with TDF 10 μM, lamivudine (3TC) at 10 μM, 1C8 10 μM or untreated (NT). Supernatant and cells were harvested at day 11 postinfection.
FIG. 5. Anti-HBV properties of 1C8 in persistently infected dHepaRG cells: genotype D. Differentiated HepaRG were infected with HBV genotype D at a MOI of 100 vge/cell or HDV genotype 1 at a MOI of 10 vge/cell for 7 days before being treated trice every 2-3 days with indicated molecules at a concentration of 10 microM. A) Total DNA and RNA were extracted from cells and subjected to qPCR and RTqPCR to detect HBV cccDNA, total HBV RNA or pregenomic HBV RNA. B) HBs and HBe secreted antigens in supernatant were quantified by ELISA, whereas HBV DNA contained in virions was quantified by qPCR after viral nucleic acid extraction from supernatant. C) Intracellular HDV RNA was quantified by RTqPCR after total RNA extraction from cells. D) Viability was monitored in 1C8-treated (or control treated; puromycin is a positive toxic molecule) cells by CellTiter-Glo® luminescent cell viability assay. Results are the mean+SEM of n=3 performed with 3 different differentiations of HepaRG. Statistics were done by two-tailed Mann-Whitney test, with following significativity: *P<0.05, **P<0.01, ***P<0.001, ****P<0.0001. nd=not determined
Human liver progenitor HepaRG cells were cultured in Williams medium (ThermoFisher) supplemented with 10% of FBS (Perbio), Penicillin/Streptomycin (500 U/mL), glutamine (2 mM), hydrocortisone Upjohn (2.5 mg/L; Serb laboratory), insulin (5 mg/L; Sigma Aldrich). For the differentiation process 2% of DMSO was added to the above-described supplemented Williams medium. […] The multiplicity of infection (MOI; expressed as virus genome equivalent/cell) is indicated in the figure legends, but was of 100 vge/cell if not precised.
From cell culture supernatants, secreted HBe and HBs antigens were quantified by ELISA, using a chemiluminescence immunoassay kit (Autobio, China) following manufacturer's instructions. […]
A HBV standard was used for quantification of extracellular viral DNA and RNA. […]

A further assay deals with HDV genotype 1. The assay can be described thus: Establishment of HDV infection in dHepaRG (treatment 24 h before and during inoculation). The class given is cell-based, hepatitis delta virus. As to conditions: 1C8 10 microM, Entry Inh. 100 nM. On the procedure: as §1
FIG. 7. Effect of 1C8 on de novo establishment of ccDNA in dHepaRG (genotype D). […] B) HBs and HBe secreted antigens in supernatant were quantiUied by ELISA, whereas HBV DNA contained in virions was quantified by qPCR after viral nucleic acid extraction from supernatant. […] Statistics were done by two-tailed Mann-Whitney test, with following signiUicativity: *P<0.05, **P<0.01, ***P<0.001, ****P<0.0001. nd=not determined.

Assay [1] addresses serine/arginine-rich splicing factor 10 (SRSF10) (human) (UniProt O75494). As to the kind of experiment: Strep-Tactin affinity purification of StrepTag-HBc complexes from hepatocyte nuclei, LC-MS/MS.

serine/arginine-rich splicing factor 10 (SRSF10) (human), sequence (O75494 whole entry): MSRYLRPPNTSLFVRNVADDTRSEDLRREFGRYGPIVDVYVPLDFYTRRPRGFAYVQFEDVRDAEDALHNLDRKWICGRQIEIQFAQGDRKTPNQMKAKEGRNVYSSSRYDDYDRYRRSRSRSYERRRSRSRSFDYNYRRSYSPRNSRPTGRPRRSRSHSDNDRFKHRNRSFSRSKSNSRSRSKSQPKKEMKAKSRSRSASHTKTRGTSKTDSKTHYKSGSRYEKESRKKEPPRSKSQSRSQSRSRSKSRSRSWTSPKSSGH
StrepTag-HBc (core/capsid protein of HBV with a StrepTag at the N terminus), sequence (P03146 whole entry): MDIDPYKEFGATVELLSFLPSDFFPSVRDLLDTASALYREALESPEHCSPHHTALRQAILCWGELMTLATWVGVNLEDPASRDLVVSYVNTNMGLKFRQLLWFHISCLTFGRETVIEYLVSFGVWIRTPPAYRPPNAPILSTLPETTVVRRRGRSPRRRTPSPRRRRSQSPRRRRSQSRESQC

Consider `C[C@H](Cn1cnc2c(N)ncnc21)OCP(=O)(O)O` [tenofovir, reference compound], for which the “impact on accumulation of intracellular HBV RNA” value in the assay on HBV genotype D is reported as “not capable to impact”.
Regarding “Entry Inh.: PreS1 peptide, aa 2 to 48 of HBV PreS1 (SEQ ID No 1), N-terminal myristoyl, used for inhibiting HBV entry [reference compound]”, the “block of the establishment of HDV infections” value with HDV genotype 1 was “inhibited”.
“StrepTag-HBc (core/capsid protein of HBV with a StrepTag at the N terminus)”: in assay [1], the enrichment in HBc complexes was determined as 3000 times.
